Experimental data reported in patent publication EP4578856A1, “HETEROCYCLIC COMPOUND” (Ubience Inc., priority 2022, dated 2024).

Assays:
[1] = target: T1, ROCK2 protein (Homo sapiens, UniProt O75116); assay: Degradation inducing activity of ROCK2 protein in HUVEC cells, Western blotting (Simple Western JESS); type: cell-based; set-up: endogenous in cells; host or cells: HUVEC (ATCC CRL-1730); details: HUVEC, 24 h; for inhibition at 1 µM: degradation rate at 1 µM; for inhibition at 10 µM: degradation rate at 10 µM
Method in brief: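 HUVEC cells treated 24 h with compound at 10 µM or 1 µM, then lysed; ROCK2 quantified by capillary Western (Simple Western JESS) using rabbit mAb D1B1, normalized to total loaded protein. Degradation rate (%) calculated relative to DMSO control set at 100%, binned A ≥75%, B 50–75%, C 25–50%, D <25%.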
Target sequence in this assay (O75116 whole entry): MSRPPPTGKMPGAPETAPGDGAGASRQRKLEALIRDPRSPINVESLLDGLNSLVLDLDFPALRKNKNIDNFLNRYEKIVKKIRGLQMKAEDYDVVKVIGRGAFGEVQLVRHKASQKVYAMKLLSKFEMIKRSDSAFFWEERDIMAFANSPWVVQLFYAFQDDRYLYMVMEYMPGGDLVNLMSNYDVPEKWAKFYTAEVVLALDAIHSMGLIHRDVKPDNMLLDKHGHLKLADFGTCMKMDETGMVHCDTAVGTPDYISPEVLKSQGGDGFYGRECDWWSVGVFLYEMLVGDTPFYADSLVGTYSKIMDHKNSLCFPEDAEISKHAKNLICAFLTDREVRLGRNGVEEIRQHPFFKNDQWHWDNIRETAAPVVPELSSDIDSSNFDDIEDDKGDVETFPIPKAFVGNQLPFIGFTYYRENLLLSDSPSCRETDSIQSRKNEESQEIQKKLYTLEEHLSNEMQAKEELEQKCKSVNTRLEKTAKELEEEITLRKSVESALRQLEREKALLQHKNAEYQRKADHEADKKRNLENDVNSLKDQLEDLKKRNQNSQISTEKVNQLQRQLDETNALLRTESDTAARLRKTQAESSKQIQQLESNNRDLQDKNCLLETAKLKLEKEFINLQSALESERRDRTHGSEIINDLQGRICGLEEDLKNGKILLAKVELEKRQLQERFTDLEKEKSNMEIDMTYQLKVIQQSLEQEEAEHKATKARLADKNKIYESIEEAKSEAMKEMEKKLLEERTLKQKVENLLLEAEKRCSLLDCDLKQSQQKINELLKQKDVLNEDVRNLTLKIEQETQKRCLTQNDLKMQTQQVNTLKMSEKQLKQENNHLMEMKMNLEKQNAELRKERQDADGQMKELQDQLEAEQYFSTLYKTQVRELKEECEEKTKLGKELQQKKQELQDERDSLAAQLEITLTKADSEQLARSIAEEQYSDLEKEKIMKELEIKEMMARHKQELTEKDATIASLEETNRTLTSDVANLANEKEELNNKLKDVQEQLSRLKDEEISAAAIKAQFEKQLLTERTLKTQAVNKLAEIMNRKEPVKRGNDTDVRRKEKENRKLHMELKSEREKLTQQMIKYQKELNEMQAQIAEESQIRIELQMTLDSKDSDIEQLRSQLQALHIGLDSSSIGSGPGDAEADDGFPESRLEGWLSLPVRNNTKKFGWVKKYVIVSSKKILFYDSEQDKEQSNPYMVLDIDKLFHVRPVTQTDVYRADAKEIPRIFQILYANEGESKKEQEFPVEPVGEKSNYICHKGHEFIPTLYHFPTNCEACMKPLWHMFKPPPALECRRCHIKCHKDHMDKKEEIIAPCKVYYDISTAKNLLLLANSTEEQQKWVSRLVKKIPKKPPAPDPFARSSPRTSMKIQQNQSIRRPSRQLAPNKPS

[2] = target: T1, ROCK2 protein; assay: ROCK2 kinase inhibitory activity, mobility shift assay (MSA, Carna Biosciences); type: biochemical; set-up: GST (N); purchased Carna Biosciences, Inc; host or cells: baculovirus expression system; details: read-out: ROCK2 inhibition rate; for inhibition at 10 µM: evaluation concentration 10 µM; for inhibition at 1 µM: evaluation concentration 1 µM; for inhibition at 0.03 µM: evaluation concentration 0.03 µM
Experimental: The ROCK2 kinase inhibitory activity was measured using a mobility shift assay (MSA) provided by Carna Biosciences, Inc.
The test compound was dissolved in DMSO and further diluted with DMSO to prepare a solution having a concentration 100 times the evaluation concentration. The solution was further diluted 25 times with an assay buffer (20 mmol/L HEPES, 0.01% Triton (registered trademark) X-100, 1 mmol/L DTT, pH 7.5) to obtain a test compound solution.
The human ROCK2 kinase was expressed by fusing the catalytic domain (1 to 553 amino acids of Accession No. NP_004841.2) with GST at the N-terminus using the baculovirus expression system. GST-ROCK2 was purified by glutathione sepharose chromatography.
A 4-fold concentration substrate (LIMKtide, 1000 nmol/L) /ATP (5 µmol/L)/metal solution (Mg, 5 mmol/L) was prepared with kit buffer (20 mmol/L HEPES, 0.01% Triton (registered trademark) X-100, 5 mmol/L DTT, pH 7.5). A 2-fold concentration kinase solution was prepared with assay buffer. 5 µL of a 4-fold concentration test compound solution, 5 µL of a 4-fold concentration substrate/ATP/metal solution, and 10 µL of a 2-fold concentration kinase solution were mixed in a well of a polypropylene 384 well plate, and the mixture was reacted at room temperature for 1 hour. 70 µL of termination buffer (127 mmol/L HEPES, 0.01% Triton (registered trademark) X-100, 26.7 mmol/L EDTA-2Na, 1% DMSO, pH 7.5) was added to stop the reaction. The substrate peptide and the phosphorylated peptide in the reaction solution were separated and quantified using a LabChip (trademark) system (Perkin Elmer).
The kinase reaction was evaluated by the product ratio (P/(P + S)) calculated from the substrate peptide peak height (S) and the phosphorylated peptide peak height (P).
The average signal of the control well including all the reaction components was set to 0% suppression, the average signal of the background well (no enzyme added) was set to 100% suppression, and the inhibition rate was calculated from the average signal of the test compound test well.
The ROCK2 inhibition rate and the evaluation concentration of the test compound are shown in Table 4-1, and the IC50 value of the inhibitory activity is shown in Table 4-2. […]
Target sequence in this assay (O75116 1-553): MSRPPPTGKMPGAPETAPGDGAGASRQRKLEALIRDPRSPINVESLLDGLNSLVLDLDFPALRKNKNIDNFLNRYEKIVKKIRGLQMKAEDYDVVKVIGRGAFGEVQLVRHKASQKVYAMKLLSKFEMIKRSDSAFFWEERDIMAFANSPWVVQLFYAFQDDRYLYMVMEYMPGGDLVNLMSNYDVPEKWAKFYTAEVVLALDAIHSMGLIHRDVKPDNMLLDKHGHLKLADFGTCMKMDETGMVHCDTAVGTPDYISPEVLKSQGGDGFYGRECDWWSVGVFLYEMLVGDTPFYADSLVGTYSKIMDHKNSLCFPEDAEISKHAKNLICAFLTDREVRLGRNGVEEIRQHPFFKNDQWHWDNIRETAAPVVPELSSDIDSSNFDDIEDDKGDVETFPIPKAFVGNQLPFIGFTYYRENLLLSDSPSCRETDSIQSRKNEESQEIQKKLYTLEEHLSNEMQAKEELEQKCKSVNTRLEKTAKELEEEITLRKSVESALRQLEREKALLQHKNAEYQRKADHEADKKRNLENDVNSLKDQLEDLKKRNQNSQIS

COC[C@H]1CN[C@H](C)CN1CC(=O)N1CC(C)(C)c2ncc(Cc3cccc(OCCOCCOCCOCCOCCOCCOCCN[C@H](C)c4ccc(C(=O)Nc5ccncc5)cc4)c3)cc21 [Example 48, 4-((R)-23-(3-((1-(2-((2R,5R)-2-(Methoxymethyl)-5-methylpiperazin-1-yl)acetyl)-3,3-dimethyl-2,3-dihydro-1H-pyrrolo[3,2-b]pyridin-6-yl)methyl)phenoxy)-6,9,12,15,18,21-hexaoxa-3-azatricosan-2-yl)-N-(pyridin-4-yl)benzamide]
inhibition at 1 µM [1]: 50 to 75%
inhibition at 10 µM [1]: 50 to 75%
inhibition at 10 µM [2]: ≥ 75%

COC[C@H]1CN[C@H](C)CN1CC(=O)N1CC(C)(C)c2nc(CN(C)CCOCCOCCOCCN[C@H](Cc3cccc(F)c3)C(=O)Nc3ccc(-c4ccncc4)cc3)c(Cc3ccc(F)cc3)cc21 [Example 31, (R)-15-(3-Fluorobenzyl)-1-(6-(4-fluorobenzyl)-1-(2-((2R,5R)-2-(methoxymethyl)-5-methylpiperazin-1-yl)acetyl)-3,3-dimethyl-2,3-dihydro-1H-pyrrolo[3,2-b]pyridin-5-yl)-2-methyl-N-(4-(pyridin-4-yl)phenyl)-5,8,11-trioxa-2,14-diazahexadecan-16-amide]
inhibition at 1 µM [1]: 50 to 75%
inhibition at 10 µM [1]: 50 to 75%
inhibition at 1 µM [2]: 25 to 50%

C[C@@H]1CN(CC(=O)N2CC(C)(C)c3ncc(Cc4ccc(F)cc4)cc32)[C@@H](CN(C)CCOCCOCCNC[C@@H](C(=O)Nc2ccc3cnccc3c2)c2ccccc2)CN1 [Example 16, (S)-1-((2R,5R)-1-(2-(6-(4-Fluorobenzyl)-3,3-dimethyl-2,3-dihydro-1H-pyrrolo[3,2-b]pyridin-1-yl)-2-oxoethyl)-5-methylpiperazin-2-yl)-N-(isoquinolin-6-yl)-2-methyl-13-phenyl-5,8-dioxa-2,11-diazatetradecan-14-amide]
inhibition at 1 µM [1]: 25 to 50%
inhibition at 10 µM [1]: ≥ 75%
inhibition at 0.03 µM [2]: 50 to 75%

C[C@@H]1CN(CC(=O)N2CC(C)(C)c3ncc(Cc4ccc(F)cc4)cc32)[C@@H](CN(C)CCOCCOCCN[C@H](Cc2cccc(F)c2)C(=O)Nc2ccc(-c3ccncc3)cc2)CN1 [Example 9, (R)-12-(3-Fluorobenzyl)-1-((2R,5R)-1-(2-(6-(4-fluorobenzyl)-3,3-dimethyl-2,3-dihydro-1H-pyrrolo[3,2-b]pyridin-1-yl)-2-oxoethyl)-5-methylpiperazin-2-yl)-2-methyl-N-(4-(pyridin-4-yl)phenyl)-5,8-dioxa-2,11-diazatridecan-13-amide]
inhibition at 1 µM [1]: < 25%
inhibition at 10 µM [1]: ≥ 75%
inhibition at 1 µM [2]: 25 to 50%

COC[C@H]1CN[C@H](C)CN1CC(=O)N1CC(C)(C)c2nc(CN(C)CCOCCOCCOCCN[C@H](C)c3ccc(C(=O)Nc4ccncc4)cc3)c(Cc3ccc(F)cc3)cc21 [Example 24, 4-((R)-1-(6-(4-Fluorobenzyl)-1-(2-((2R,5R)-2-(methoxymethyl)-5-methylpiperazin-1-yl)acetyl)-3,3-dimethyl-2,3-dihydro-1H-pyrrolo[3,2-b]pyridin-5-yl)-2-methyl-5,8,11-trioxa-2,14-diazahexadecan-15-yl)-N-(pyridin-4-yl)benzamide]
inhibition at 1 µM [1]: ≥ 75%
inhibition at 10 µM [1]: 50 to 75%
inhibition at 10 µM [2]: ≥ 75%

COC[C@H]1CN[C@H](C)CN1CC(=O)N1CC(C)(C)c2nc(CN(C)CCOCCNC[C@@H](C(=O)Nc3ccc4cnccc4c3)c3ccccc3)c(Cc3ccc(F)cc3)cc21 [Example 36, (S)-3-((2-(2-(((6-(4-Fluorobenzyl)-1-(2-((2R,5R)-2-(methoxymethyl)-5-methylpiperazin-1-yl)acetyl)-3,3-dimethyl-2,3-dihydro-1H-pyrrolo[3,2-b]pyridin-5-yl)methyl)(methyl)amino)ethoxy)ethyl)amino)-N-(isoquinolin-6-yl)-2-phenylpropanamide]
inhibition at 1 µM [1]: 25 to 50%
inhibition at 10 µM [1]: ≥ 75%
inhibition at 0.03 µM [2]: 50 to 75%

C[C@@H]1CN(CC(=O)N2CC(C)(C)c3ncc(Cc4ccc(F)cc4)cc32)[C@@H](CN(C)CCOCCOCCOCCN[C@H](C)c2ccc(C(=O)Nc3ccncc3)cc2)CN1 [Example 3, 4-((R)-1-((2R,5R)-1-(2-(6-(4-Fluorobenzyl)-3,3-dimethyl-2,3-dihydro-1H-pyrrolo[3,2-b]pyridin-1-yl)-2-oxoethyl)-5-methylpiperazin-2-yl)-2-methyl-5,8,11-trioxa-2,14-diazahexadecan-15-yl)-N-(pyridin-4-yl)benzamide]
inhibition at 1 µM [1]: 50 to 75%
inhibition at 10 µM [1]: ≥ 75%
inhibition at 10 µM [2]: ≥ 75%

COC[C@H]1CN[C@H](C)CN1CC(=O)N1CC(C)(C)c2ncc(Cc3cccc(OCCOCCOCCOCCOCCOCCOCCOCCN[C@H](Cc4cccc(F)c4)C(=O)Nc4ccc(-c5ccncc5)cc4)c3)cc21 [Example 56, (R)-2-(3-Fluorobenzyl)-26-(3-((1-(2-((2R,5R)-2-(methoxymethyl)-5-methylpiperazin-1-yl)acetyl)-3,3-dimethyl-2,3-dihydro-1H-pyrrolo[3,2-b]pyridin-6-yl)methyl)phenoxy)-N-(4-(pyridin-4-yl)phenyl)-6,9,12,15,18,21,24-heptaoxa-3-azahexacosanamide]
inhibition at 1 µM [1]: 50 to 75%
inhibition at 10 µM [1]: 50 to 75%
inhibition at 1 µM [2]: < 25%
